Laboratory results from US6596727B1, “Substituted pyrimidines, processes for their preparation, and their use as pesticides and fungicides” (priority 1992, dated 2003).

Experiments:
[1] = test system: larvae (L3) of the species Nilaparvata lugens; assay: Nilaparvata lugens larvae test on dipped rice plants; assay type: in vivo; conditions: 250 ppm of the active ingredient, 21° C., after 4 days
Description: Rice seed is placed into glass culture dishes containing cotton wool and germinated under moist conditions and, after the stem has grown to a length of approx. 8 cm, it is dipped together with the leaves into the test solution. The test solution is allowed to run off from the treated rice plants, and the plants are transferred to culture containers and populated with batches of 10 larvae (L3) of the species Nilaparvata lugens, the individual test concentrations being kept separate from each other. After the sealed culture containers have been kept at 21° C., the mortality of the cicada larvae can be determined after 4 days.
Under these test conditions, the compounds according to Example No. 9, 25, 30, 93, 99, 432 have a 100% activity at a test concentration of 250 ppm of the active ingredient.

[2] = test system: tropical cattle ticks (Boophilus microplus); assay: In vitro test with tropical cattle ticks, inhibition of oviposition; assay type: in vivo; conditions: 500 ppm active substance; females immersed five minutes; two weeks after the treatment
Experimental: In vitro test with tropical cattle ticks (Boophilus microplus)
To prepare a suitable preparation of active substance, the active substances were dissolved at a concentration of 10% (w/v) in a mixture composed of dimethylformamide (85 g), nonylphenol polyglycol ether (3 g) and oxethylated castor oil (7 g), and the resulting emulsion concentrates were diluted with water to a test concentration of 500 ppm.
Batches of ten females of the tropical tick Boophilus microplus which had sucked themselves full were immersed for five minutes in these active substance dilutions. The ticks were subsequently dried on filter paper and then attached, by their backs, to an adhesive film for the purpose of oviposition. The ticks were kept in an incubator at 28° C. and an atmospheric humidity of 90%.
As a control, female ticks were merely immersed in water. The inhibition of oviposition two weeks after the treatment was used to assess the effectiveness. 100% mean that no ticks have deposited eggs, 0% means that all ticks have deposited eggs.

COCc1ncnc(NC2CCC(C(C)(C)C)CC2)c1OC (mixture of isomers) [Example 9]
mortality of the cicada larvae (activity) [1]: 100%

CC(C)(C)C1CCC(Nc2ncnc3c2CCCC3)CC1 (mixture of isomers) [Example 10]
inhibition of oviposition [2]: 100%

COCc1ncnc(NC2CCC(c3ccccc3)CC2)c1OC (mixture of isomers) [Example 93]
mortality of the cicada larvae (activity) [1]: 100%

CC(C)(C)C1CCC(Oc2ncnc3c2CCCC3)CC1 (stereo not drawn) [Example 19]
inhibition of oviposition [2]: 100%

COCc1ncnc(NC2CCC(C(C)C)CC2)c1OC (stereo not drawn) [Example 25]
mortality of the cicada larvae (activity) [1]: 100%

CCC(C)(C)C1CCC(Nc2ncnc(COC)c2OC)CC1 (stereo not drawn) [Example 30]
mortality of the cicada larvae (activity) [1]: 100%
inhibition of oviposition [2]: 100%

c1ccc(C2CCC(Oc3ncnc4c3CCCC4)CC2)cc1 (stereo not drawn) [Example 106]
inhibition of oviposition [2]: 100%

CCc1ncnc(OC2CCC(c3ccc(OC(C)(C)C)cc3)CC2)c1Cl (stereo not drawn) [Example 432]
mortality of the cicada larvae (activity) [1]: 100%
